{"source": "patent US20130045299A1", "about": "“Natural Mold Inhibitor and Methods of Using Same” (priority 2011, published 2013)", "key": {"pH of baked bread": {"test": "pH of baked bread", "type": "physicochemical"}, "mold": {"test_system": "mold", "test": "Mold-free shelf life of packaged bread, inspected daily (days to mold)", "description": "Bread is prepared using the no-time, straight dough method by mixing the following ingredients in a Hobart A200 mixer with a McDuffy attachment for a total of 8 minutes until full gluten development is obtained: flour (100%), water (68%), granulated sugar (7%), shortening (4%), fresh yeast (2.5%), 30% acetic acid vinegar or 300 grain vinegar (0%, 2%, 1% or 0.5%), and citric acid (0% or 0.1%). Mixed dough is rested for 10 minutes on bench then scaled into two 520 gram dough pieces and rounded by hand. Rounded dough is rested 10 minutes then is sheeted and molded into logs. Sheeted and molded logs are placed into oiled bread pans and placed into proof box (National Manufacturing) and set to 110° F. and 80% relative humidity. Dough is proofed to a consistent height, as measured by a template which was 0.75 inches above the rim of the bread pan. Proof time is considered to be time for dough to touch the top of the template minus initial time in the proof box. Proofed dough is then placed into an oven and baked for 20 minutes at a temperature of 420° F. Internal temperature of the bread exiting the oven is 195° F.-200° F. Baked bread is cooled at room temperature on a wire rack for one hour to an internal temperature of between 95° F. and 100° F. After cooling, bread is sliced and packaged in plastic bags and sealed with twist ties. Packaged bread is stored at room temperature 70° F.-75° F. and visually inspected for mold appearance on a daily basis. Bread is considered as expired/failed upon first sign of mold.\nMixed dough is rested for 10 minutes on bench then scaled into two 520 gram dough pieces and rounded by hand. Rounded dough is rested 10 minutes then sheeted and molded into logs. Sheeted and molded logs are placed into oiled bread pans and placed into proof box (National Manufacturing) set to 110° F. and 80% relative humidity. Dough is proofed to a consistent height, as measured by a template which was 0.75 inches above the rim of the bread pan. Proof time is considered to be time for dough to touch the top of the template minus initial time in the proof box. Proofed dough is then placed into an oven and is baked for 20 minutes at a temperature of 420° F. The internal temperature of the bread exiting the oven is 195° F.-200° F. Baked bread is cooled at room temperature on a wire rack for one hour to an internal temperature of between 95° F. and 100° F. After cooling, the bread is sliced and packaged in plastic bags and sealed with twist ties.\nPackaged bread is stored at room temperature 70° F.-75° F. Packaged bread is visually inspected for mold appearance on a daily basis. Bread is considered as expired/failed upon first sign of mold."}}}
{"smiles": "CCC(=O)[O-].CCC(=O)[O-].[Ca+2]", "note": "[Calcium Propionate, calcium propionate]", "values": [{"measurement": "pH Bread", "setting": "pH of baked bread; Table 4, 0.33%", "result": 5.60}, {"measurement": "pH Bread", "setting": "pH of baked bread; Table 4, 0.5%", "result": 5.45}, {"measurement": "pH Bread", "setting": "pH of baked bread; Table 6, 0.33%", "result": 5.62}, {"measurement": "pH Bread", "setting": "pH of baked bread; Table 7, 0.33%", "result": 5.72}, {"measurement": "pH Bread", "setting": "pH of baked bread; Table 8, 0.33% (flour basis)", "result": 5.57}, {"measurement": "pH Bread", "setting": "pH of baked bread; Table 8, 0.50% (flour basis)", "result": 5.57}, {"measurement": "pH Bread", "setting": "pH of baked bread; Table 8, 0.75% (flour basis)", "result": 5.58}, {"measurement": "pH Bread", "setting": "pH of baked bread; Table 8, 1.00% (flour basis)", "result": 5.59}, {"measurement": "Days to Mold", "setting": "mold; Table 4, 0.33%", "result": 15, "unit": "days"}, {"measurement": "Days to Mold", "setting": "mold; Table 4, 0.5%", "result": 17, "unit": "days"}, {"measurement": "Days to Mold", "setting": "mold; Table 6, white pan bread, 0.33%", "result": 14, "unit": "days"}, {"measurement": "Days to Mold", "setting": "mold; Table 7, white pan bread, 0.33%", "result": 14, "unit": "days"}, {"measurement": "Days to Mold", "setting": "mold; Table 8, 0.33% (flour basis)", "result": 9, "unit": "days"}, {"measurement": "Days to Mold", "setting": "mold; Table 8, 0.50% (flour basis)", "result": 12, "unit": "days"}, {"measurement": "Days to Mold", "setting": "mold; Table 8, 0.75% (flour basis)", "result": 23, "unit": "days"}, {"measurement": "Days to Mold", "setting": "mold; Table 8, 1.00% (flour basis)", "result": 32, "unit": "days"}, {"measurement": "Days to Mold", "setting": "mold; Table 9, White Pan Bread, 0.33%", "result": 11, "unit": "days"}, {"measurement": "Days to Mold", "setting": "mold; Table 10, White Pan Bread, 0.33%", "result": 15, "unit": "days"}, {"measurement": "Days to Mold", "setting": "mold; Table 10, 0.50%", "result": 17, "unit": "days"}]}
